# Reference: US9018168B2, “Therapeutic method for treating congestive heart failure” (Madeleine Pharmaceuticals Pty Ltd, priority 2010, dated 2015)
# Like-named read-outs stand apart in the source and are kept apart here. No end group written: not given here.
# How the values were obtained:
# [1] = cited from earlier work
# [2] = Example 2: estimation of baseline and Cmax for VSDL following infusion (blood samples, mass spectroscopy); format: in vivo, human; details: for half-life: read-out: estimated half-life (t1/2)
# Source text: Following the surprising finding that beneficial effects for the treatment of chronic CHF can be achieved with doses that are much less than that which had been proposed, a study was undertaken to estimate the baseline levels of VSDL and Cmax (ie the peak VSDL concentration that is achieved) following infusion.
# The baseline VSDL concentration (ie endogenous level) was estimated from an identical sample taken prior to infusion (ie “predose”).
# [3] = system: subjects with chronic CHF or ADCHF (NYHA class III - NYHA class IV); assay: Example 1: treatment of ADCHF with iv administration of vessel dilator; format: in vivo, human
# Source text: This example describes a study to examine whether VSDL administration to ADCHF patients will be safe and induce improvements in haemodynamic parameters, as well as renal, natriuretic and diuretic parameters, whilst regulating plasma volume and BP within clinically acceptable ranges and without seriously adverse side effects.
# VSDL in the form of a white lyophilised powder (synthesised using standard protein synthesis method by Auspep Pty Ltd, Parkville, VIC, Australia), stored in an ultra low freezer (−80° C.), was reconstituted in a vial with 10 ml of 0.9% saline (preservative free) and aseptically transferred into a 20 ml syringe (that connects to a patient cannula) before use.
# Initially, an iv dose of 12.5 ng/kg/min was infused into test subjects for 60 minutes with a syringe driver (Alaris Asena GS syringe driver; C are Fusion Corporation, San Diego, Calif., United States of America). This “safety dose” was chosen merely to trial the subjects for any adverse effects. Subsequently, a dose of 25 ng/kg/min (as infused for 60 minutes) was trialled. Additionally, a trial will be conducted with a dose of 50 ng/kg/min (for 60 minutes).
# Test adult subjects, both male and female, showing either acute exacerbations of chronic CHF or ADCHF (ie in individuals who had not previously shown heart failure), were recruited for the study. The following inclusion and exclusion criteria were applied:
# In order to be eligible, a subject must have chronic CHF or ADCHF (NYHA class III—NYHA class IV) defined as: • 1. Showing dyspnoea at rest or dyspnoea with minimal activity (ie difficulty breathing at rest while sitting, or difficulty breathing while lying flat or with one pillow, or difficulty breathing with minimal activity such as talking, eating); AND • 2. Showing at least one of the following signs: • Tachypnoea with respiratory rate >20 breaths per minute, OR • Pulmonary congestion/oedema with rales or crackles/crepitations at least a third above lung bases; AND • 3. At least one of the following objective measures: • Showing, by chest X-ray, pulmonary oedema/congestions OR • Circulating B-type natriuretic peptide (BNP) concentration of ≧400 pg/ml or circulating NT-proBNP concentration of ≧1000 pg/ml at presentation, OR • PCWP >20 mmHg OR • Showing systolic dysfunction within the last 12 months (EF<50%) as determined by TTE, nuclear testing, cardiac MRI or ventricular angiography); and be: • 4. Male and/or female, 18 years or older; and • 5. If a woman of child bearing potential, testing negative to 13-hCG. Exclusion Criteria: • 1. Evidence in the ED for Myocardial Infarction (MI) or high risk acute coronary syndrome within past 6 weeks, as determined by creatinine kinase (CK)/creatinine kinase muscle-brain isoenzyme (CK-MB) ≧2 times upper limit of normal or elevation of Troponin T at baseline >0.1 or as determined by Trans-Thoracic […] (TTE); • 2. Hypotension (SBP <90 mmHg), cardiogenic shock, volume depletion; • 3. Persistent, uncontrolled hypertension (SBP >180 mm Hg); • 4. Subjects with the presence of any CMR contra-indication (including PPM, cerebral aneurysm clips or non-MM approved metallic implant) are excluded from any MRI study component only; • 5. Congenital heart defects (including Ventricular Septal Defect, Atrial Septal Defect, Patent Ductus Arteriosus, Tetralogy of Fallot, and Tricuspid Atresia); • 6. Cardiac surgery within past 4 weeks; • 7. Diastolic heart failure (preserved left ventricular function—determined by known history, ie E:E prime ratio>15); • 8. Severe valvular heart disease: Aortic Stenosis <1.0 cm^2, any Idiopathic hypertrophic subaortic stenosis or Hypertrophic Obstructive Cardiomyopathy, acute Aortic Regurgitation grade 3 or 4 and Mitral Regurgitation grade 3 or 4; • 9. History of cerebrovascular accident (within past 4 weeks) as determined by MM or Computerised Tomography (CT) Scan; • 10. […]
# [4] = system: patients with chronic, but stable, New York Heart Association (NYHA) Class III CHF; details: cited from earlier work
# [5] = Expected increase in total circulating VSDL at originally selected doses; format: in vivo, human
# Description: Since it was thought that subjects suffering significant CHF are unable to produce adequate endogenous amounts of natriuretic peptides to compensate for congestion, the present applicant had selected doses of exogenous VSDL infusion of 50 ng/kg/min, 100 ng/kg/min and 200 ng/kg/min for 60 minutes to ascertain the approximate amounts of exogenous VSDL required by late NHYA class III—NYHA class IV patients to reinstate homeostasis. Such doses were expected to result in an approximately 2-fold, 4-fold and 8-fold increase in total circulating VSDL, respectively. Further, the present applicant had particularly proposed an exogenous dose of VSDL at <100 ng/kg/min (for 60 mins) for the treatment of chronic CHF or ADCHF as a safe and effective dosage, since it has been identified that the release rate from the heart of VSDL with physiological stimuli is about 138 ng/kg body weight per minute^16 and similar dosages have been previously observed to cause a marked natriuresis and diuresis in healthy humans^17, 18 and, also, improved haemodynamic and renal parameters in persons with stable NYHA class III chronic CHF^10. The molar equivalent of the 100 ng/kg body weight dose (for 60 mins) is 26 pmol/kg body weight (for 60 mins). […] In particular, at 12.5 ng/kg/min (for 60 mins) and 25 ng/kg/min (for 60 mins). […]
# [6] = 25 ng/kg/min iv for 60 mins, 24 hrs post-infusion
# [7] = 25 ng/kg/min iv for 60 mins, Baseline
# [8] = Subject #2, 12.5 ng/kg/min iv for 60 mins
# [9] = Subject #3, 12.5 ng/kg/min iv for 60 mins
# [10] = one subject, 25 ng/kg/min iv for 60 mins
substance,measurement,setting,value
"B-type natriuretic peptide [BNP, reference compound]",biological t1/2,[1]; in vivo,< ½
same,circulatory t1/2,[1]; in vivo,~3.1 min
EVVPPQVLSEPNEEAGAALSPLPEVPPWTGEVSPAQR [VSDL],Corrected Concentration,[2]; 0.5 hrs following infusion,4.376 ng/mL
same,Corrected Concentration,[2]; 1 hrs following infusion,4.376 ng/mL
same,Corrected Concentration,[2]; 1.5 hrs following infusion,1.176 ng/mL
same,Corrected Concentration,[2]; 2 hrs following infusion,0.556 ng/mL
same,Corrected Concentration,[2]; 3 hrs following infusion,0.136 ng/mL
same,Corrected Concentration,[2]; 4 hrs following infusion,0.061 ng/mL
same,Corrected Concentration,[2]; 5 hrs following infusion,0.022 ng/mL
same,Corrected Concentration,[2]; 6 hrs following infusion,0.005 ng/mL
same,Corrected Concentration,[2]; 12 hrs following infusion,0.018 ng/mL
same,Corrected Concentration,[2]; Predose,0.024 ng/mL
same,half-life,"[2]; human, blood, intravenous, terminal elimination rate using the LOQ of 0.2 ng/ml",20 min
same,half-life,"[2]; human, blood, intravenous, using the point just below the LOQ, excluding and including the Cmax values",25 to 30 min
same,Tmax,"[2]; human, blood, intravenous, CHF patient (NYHA class III), following infusion",30 min
same,level at 0.5 h,"[2]; human, blood, iv, 0.5 hrs following infusion, read-out: Concentration",4.4 ng/mL
same,level at 1 h,"[2]; human, blood, iv, 1 hrs following infusion, read-out: Concentration",4.4 ng/mL
same,level at 1.5 h,"[2]; human, blood, iv, 1.5 hrs following infusion, read-out: Concentration",1.2 ng/mL
same,level at 2 h,"[2]; human, blood, iv, 2 hrs following infusion, read-out: Concentration",0.58 ng/mL
same,level at 3 h,"[2]; human, blood, iv, 3 hrs following infusion, read-out: Concentration",0.16 ng/mL
same,level at 4 h,"[2]; human, blood, iv, 4 hrs following infusion, read-out: Concentration",0.085 ng/mL
same,level at 5 h,"[2]; human, blood, iv, 5 hrs following infusion, read-out: Concentration",0.046 ng/mL
same,level at 6 h,"[2]; human, blood, iv, 6 hrs following infusion, read-out: Concentration",0.029 ng/mL
same,level at 12 h,"[2]; human, blood, iv, 12 hrs following infusion, read-out: Concentration",0.042 ng/mL
same,Cmax,"[2]; human, intravenous, CHF patient (NYHA class III), blood, following infusion, baseline-corrected",4.38 ng/mL
same,elimination of VSDL from the blood stream,[2]; measured concentration profile (FIG. 3),does not clearly follow first order kinetics
same,baseline (endogenous) VSDL concentration,"[2]; predose blood sample, CHF patient (NYHA class III)",0.024 ng/mL
same,biological t1/2,[1]; previously reported,> 6 hours
same,circulatory t1/2,[1]; previously reported,120 min
same,safety risks seen by reviewers,"[3]; 12.5 ng/kg/min iv for 60 mins, three subjects",no safety risks
same,CK,[3]; [6],156 U/L
same,CK-MB,[3]; [6],1.3 µg/L
same,Troponin T,[3]; [6],<0.02 µg/L
same,CK,[3]; [7],188 U/L
same,CK-MB,[3]; [7],2.0 µg/L
same,Troponin T,[3]; [7],<0.02 µg/L
same,clinical state during the 24 hours following the infusion,[3]; [8],stable during the 24 hours
same,side-effects,[3]; [8],global dyskinesis and no side-
same,tolerability of infusion,[3]; [8],infusion was well tolerated by
same,clinical state during and within 24 hours following the infusion,[3]; [9],clinically stable during this
same,tolerability of infusion,[3]; [9],subject tolerated the infusion
same,safety risks seen by reviewers,[3]; [10],no safety risks
same,side effects,[3]; [10],no side effects
same,tolerability of infusion,[3]; [10],well tolerated
same,symptomatic side effects,[4],without any symptomatic side effects
same,expected increase in total circulating VSDL,[5]; 100 ng/kg/min for 60 minutes,~4 fold
same,expected increase in total circulating VSDL,[5]; 200 ng/kg/min for 60 minutes,~8 fold
